{
  "source": "patent US10168342B2",
  "about": "“Lipid probes and uses thereof” (THE SCRIPPS RESEARCH INSTITUTE, priority 2015, dated 2019)",
  "key": {"[1]": {"molecular_target": "T1, AEA-DA-modified peptides in Neuro2a cells (Mus musculus, UniProt Q8BWM0)", "T1 construct": "endogenous in cells; host or cells: Neuro2a", "T1 sequence (Q8BWM0 whole entry)": "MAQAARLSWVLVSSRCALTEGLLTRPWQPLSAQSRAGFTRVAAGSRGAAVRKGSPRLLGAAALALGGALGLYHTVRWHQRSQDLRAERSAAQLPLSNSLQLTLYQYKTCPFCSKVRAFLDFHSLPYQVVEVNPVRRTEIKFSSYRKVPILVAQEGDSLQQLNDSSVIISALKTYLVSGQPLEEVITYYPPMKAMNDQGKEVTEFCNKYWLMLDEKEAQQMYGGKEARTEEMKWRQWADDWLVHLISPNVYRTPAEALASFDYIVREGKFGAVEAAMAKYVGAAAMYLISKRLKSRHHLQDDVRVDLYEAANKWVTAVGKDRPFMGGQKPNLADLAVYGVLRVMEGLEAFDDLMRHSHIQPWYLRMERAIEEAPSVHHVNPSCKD", "assay": "isoTOP-ABPP mapping of AEA-DA-modified peptides in Neuro2a cells", "assay_type": "cell-based", "settings": "AEA-DA-modified peptide PTGES2 Q8BWM0 269-279, SEQ ID NO 92; probe 100 μM, 12 replicates"}, "[2]": {"molecular_target": "T2, AEA-DA-modified peptides in Neuro2a cells (Mus musculus, UniProt Q8BH04)", "T2 construct": "endogenous in cells; host or cells: Neuro2a", "T2 sequence (Q8BH04 33-640)": "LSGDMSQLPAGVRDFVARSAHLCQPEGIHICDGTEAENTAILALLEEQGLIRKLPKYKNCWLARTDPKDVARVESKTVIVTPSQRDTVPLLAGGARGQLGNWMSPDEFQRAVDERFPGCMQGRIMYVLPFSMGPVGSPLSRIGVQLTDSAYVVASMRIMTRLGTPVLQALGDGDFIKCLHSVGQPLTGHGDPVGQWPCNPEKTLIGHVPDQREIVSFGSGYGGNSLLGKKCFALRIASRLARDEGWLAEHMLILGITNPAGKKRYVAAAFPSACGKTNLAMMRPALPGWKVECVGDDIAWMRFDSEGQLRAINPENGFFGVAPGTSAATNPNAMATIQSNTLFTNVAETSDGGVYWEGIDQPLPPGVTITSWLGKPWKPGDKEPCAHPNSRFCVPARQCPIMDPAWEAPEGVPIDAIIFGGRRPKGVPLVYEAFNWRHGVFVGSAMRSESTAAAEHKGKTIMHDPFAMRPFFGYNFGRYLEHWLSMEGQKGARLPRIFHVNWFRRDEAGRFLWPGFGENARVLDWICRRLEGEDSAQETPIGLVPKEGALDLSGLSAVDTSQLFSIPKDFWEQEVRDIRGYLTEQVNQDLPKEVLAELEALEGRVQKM", "assay": "isoTOP-ABPP mapping of AEA-DA-modified peptides in Neuro2a cells", "assay_type": "cell-based", "settings": "AEA-DA-modified peptide PCK2 Q8BH04 245-262, SEQ ID NO 79; probe 100 μM, 12 replicates"}, "[3]": {"molecular_target": "T3, AEA-DA-modified peptides in Neuro2a cells (Mus musculus, UniProt P58281)", "T3 construct": "endogenous in cells; host or cells: Neuro2a", "T3 sequence (P58281 88-960)": "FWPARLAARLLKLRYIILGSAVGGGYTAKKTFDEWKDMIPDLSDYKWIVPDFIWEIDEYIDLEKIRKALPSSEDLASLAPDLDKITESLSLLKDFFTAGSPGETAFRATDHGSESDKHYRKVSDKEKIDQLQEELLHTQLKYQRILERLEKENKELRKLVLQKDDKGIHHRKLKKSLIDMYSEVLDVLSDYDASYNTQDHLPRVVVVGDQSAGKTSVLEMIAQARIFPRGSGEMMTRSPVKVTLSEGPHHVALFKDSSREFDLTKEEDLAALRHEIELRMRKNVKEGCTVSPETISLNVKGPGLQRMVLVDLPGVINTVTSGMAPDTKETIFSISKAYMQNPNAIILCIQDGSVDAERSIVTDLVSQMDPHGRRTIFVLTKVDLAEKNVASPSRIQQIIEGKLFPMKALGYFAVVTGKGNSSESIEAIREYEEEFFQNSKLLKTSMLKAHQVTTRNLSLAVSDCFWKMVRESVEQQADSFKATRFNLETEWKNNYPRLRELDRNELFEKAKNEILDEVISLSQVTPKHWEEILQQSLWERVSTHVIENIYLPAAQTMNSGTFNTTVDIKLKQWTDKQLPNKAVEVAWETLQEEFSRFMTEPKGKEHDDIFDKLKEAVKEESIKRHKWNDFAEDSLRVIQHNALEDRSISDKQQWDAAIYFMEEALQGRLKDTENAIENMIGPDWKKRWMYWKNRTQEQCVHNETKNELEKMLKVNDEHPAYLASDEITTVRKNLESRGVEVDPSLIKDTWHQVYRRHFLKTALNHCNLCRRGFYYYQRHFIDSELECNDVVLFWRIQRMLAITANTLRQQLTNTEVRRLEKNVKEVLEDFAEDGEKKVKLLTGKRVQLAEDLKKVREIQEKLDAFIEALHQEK", "assay": "isoTOP-ABPP mapping of AEA-DA-modified peptides in Neuro2a cells", "assay_type": "cell-based", "settings": "AEA-DA-modified peptide OPA1 P58281 801-819, SEQ ID NO 74; probe 100 μM, 12 replicates"}, "[4]": {"molecular_target": "T4, lipid-binding proteins in Neuro2a cells (Mus musculus, UniProt Q62465)", "T4 construct": "endogenous in cells; host or cells: Neuro2a", "T4 sequence (Q62465 whole entry)": "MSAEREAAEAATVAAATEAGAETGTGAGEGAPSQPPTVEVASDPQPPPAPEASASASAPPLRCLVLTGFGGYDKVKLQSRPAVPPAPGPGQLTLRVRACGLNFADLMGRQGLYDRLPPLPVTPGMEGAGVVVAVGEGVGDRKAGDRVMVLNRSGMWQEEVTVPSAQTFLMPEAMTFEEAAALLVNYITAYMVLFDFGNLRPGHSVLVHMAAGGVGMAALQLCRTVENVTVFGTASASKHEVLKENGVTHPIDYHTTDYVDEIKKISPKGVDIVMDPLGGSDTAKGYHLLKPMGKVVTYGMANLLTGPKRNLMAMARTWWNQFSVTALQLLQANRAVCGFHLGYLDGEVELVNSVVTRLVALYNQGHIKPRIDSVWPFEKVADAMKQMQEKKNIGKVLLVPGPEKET", "assay": "SILAC MS mapping of lipid probe targets (probe-versus-No UV, probe-versus-probe) in Neuro2a cells", "assay_type": "cell-based", "settings": "AEA-DA probe vs NoUV"}, "[5]": {"molecular_target": "T5, lipid-binding proteins in Neuro2a cells (Mus musculus, UniProt Q8BVU5)", "T5 construct": "endogenous in cells; host or cells: Neuro2a", "assay": "SILAC MS mapping of lipid probe targets (probe-versus-No UV, probe-versus-probe) in Neuro2a cells", "assay_type": "cell-based", "settings": "protein Nudt9, AEA-DA probe, No UV control"}, "[6]": {"molecular_target": "T6, lipid-binding proteins in Neuro2a cells (Mus musculus, UniProt Q61712)", "T6 construct": "endogenous in cells; host or cells: Neuro2a", "assay": "SILAC MS mapping of lipid probe targets (probe-versus-No UV, probe-versus-probe) in Neuro2a cells", "assay_type": "cell-based", "settings": "AEA-DA probe vs NoUV"}, "[7]": {"molecular_target": "T7, lipid-binding proteins in Neuro2a cells (Mus musculus, UniProt Q8R2Y0)", "T7 construct": "endogenous in cells; host or cells: Neuro2a", "assay": "SILAC MS mapping of lipid probe targets (probe-versus-No UV, probe-versus-probe) in Neuro2a cells", "assay_type": "cell-based", "settings": "AEA-DA probe vs NoUV"}, "[8]": {"molecular_target": "T8, lipid-binding proteins in Neuro2a cells (Mus musculus, UniProt Q80UU9)", "T8 construct": "endogenous in cells; host or cells: Neuro2a", "T8 sequence (Q80UU9 whole entry)": "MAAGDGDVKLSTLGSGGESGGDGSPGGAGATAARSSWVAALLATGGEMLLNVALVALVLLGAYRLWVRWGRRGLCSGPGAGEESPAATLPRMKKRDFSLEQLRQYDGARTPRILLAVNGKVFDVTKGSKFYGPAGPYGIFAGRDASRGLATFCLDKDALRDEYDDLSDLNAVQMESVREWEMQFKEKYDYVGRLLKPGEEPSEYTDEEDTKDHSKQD", "assay": "SILAC MS mapping of lipid probe targets (probe-versus-No UV, probe-versus-probe) in Neuro2a cells", "assay_type": "cell-based", "settings": "AEA-DA probe vs NoUV"}, "[9]": {"molecular_target": "T9, lipid-binding proteins in Neuro2a cells (Mus musculus, UniProt P21619)", "T9 construct": "endogenous in cells; host or cells: Neuro2a", "T9 sequence (P21619 whole entry)": "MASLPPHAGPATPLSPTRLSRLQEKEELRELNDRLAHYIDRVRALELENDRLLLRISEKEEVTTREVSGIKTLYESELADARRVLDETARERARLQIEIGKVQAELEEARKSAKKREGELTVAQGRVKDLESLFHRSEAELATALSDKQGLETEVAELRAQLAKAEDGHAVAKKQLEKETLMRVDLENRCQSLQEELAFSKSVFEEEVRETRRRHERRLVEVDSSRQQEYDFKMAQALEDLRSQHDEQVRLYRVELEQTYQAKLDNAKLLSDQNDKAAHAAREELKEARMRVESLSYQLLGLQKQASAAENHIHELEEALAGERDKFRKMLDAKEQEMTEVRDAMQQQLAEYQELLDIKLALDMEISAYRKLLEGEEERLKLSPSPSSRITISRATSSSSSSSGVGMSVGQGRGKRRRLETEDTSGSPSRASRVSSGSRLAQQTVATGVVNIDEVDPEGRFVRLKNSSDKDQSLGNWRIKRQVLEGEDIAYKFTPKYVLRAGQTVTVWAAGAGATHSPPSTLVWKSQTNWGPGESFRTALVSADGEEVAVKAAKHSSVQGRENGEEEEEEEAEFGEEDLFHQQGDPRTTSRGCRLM", "assay": "SILAC MS mapping of lipid probe targets (probe-versus-No UV, probe-versus-probe) in Neuro2a cells", "assay_type": "cell-based", "settings": "protein Lmnb2, AEA-DA probe, No UV control"}, "[10]": {"molecular_target": "T10, lipid-binding proteins in Neuro2a cells (Mus musculus, UniProt P97300)", "T10 construct": "endogenous in cells; host or cells: Neuro2a", "T10 sequence (P97300 29-397)": "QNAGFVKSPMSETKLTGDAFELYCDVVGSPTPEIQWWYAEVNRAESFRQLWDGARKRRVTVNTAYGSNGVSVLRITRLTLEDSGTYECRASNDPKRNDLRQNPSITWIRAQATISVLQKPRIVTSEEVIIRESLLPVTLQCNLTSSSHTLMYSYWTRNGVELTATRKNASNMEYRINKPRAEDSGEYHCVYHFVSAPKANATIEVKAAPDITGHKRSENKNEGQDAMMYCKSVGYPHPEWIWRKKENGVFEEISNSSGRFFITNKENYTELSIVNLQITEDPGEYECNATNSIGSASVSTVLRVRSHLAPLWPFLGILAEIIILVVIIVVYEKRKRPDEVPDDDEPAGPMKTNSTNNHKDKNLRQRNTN", "assay": "SILAC MS mapping of lipid probe targets (probe-versus-No UV, probe-versus-probe) in Neuro2a cells", "assay_type": "cell-based", "settings": "AEA-DA probe vs NoUV"}, "[11]": {"molecular_target": "T11, lipid-binding proteins in Neuro2a cells (Mus musculus, UniProt O70252)", "T11 construct": "endogenous in cells; host or cells: Neuro2a", "assay": "SILAC MS mapping of lipid probe targets (probe-versus-No UV, probe-versus-probe) in Neuro2a cells", "assay_type": "cell-based", "settings": "AEA-DA probe vs NoUV"}, "[12]": {"molecular_target": "T12, lipid-binding proteins in Neuro2a cells (Mus musculus, UniProt Q9R0P6)", "T12 construct": "endogenous in cells; host or cells: Neuro2a", "T12 sequence (Q9R0P6 whole entry)": "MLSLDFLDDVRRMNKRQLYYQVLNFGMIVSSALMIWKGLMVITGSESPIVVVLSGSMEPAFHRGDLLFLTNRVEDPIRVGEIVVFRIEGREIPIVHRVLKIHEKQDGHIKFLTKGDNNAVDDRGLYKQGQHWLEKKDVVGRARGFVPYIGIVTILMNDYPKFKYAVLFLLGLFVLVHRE", "assay": "SILAC MS mapping of lipid probe targets (probe-versus-No UV, probe-versus-probe) in Neuro2a cells", "assay_type": "cell-based", "settings": "AEA-DA probe vs NoUV"}, "[13]": {"molecular_target": "T13, lipid-binding proteins in Neuro2a cells (Mus musculus, UniProt Q60930)", "T13 construct": "endogenous in cells; host or cells: Neuro2a", "T13 sequence (Q60930 whole entry)": "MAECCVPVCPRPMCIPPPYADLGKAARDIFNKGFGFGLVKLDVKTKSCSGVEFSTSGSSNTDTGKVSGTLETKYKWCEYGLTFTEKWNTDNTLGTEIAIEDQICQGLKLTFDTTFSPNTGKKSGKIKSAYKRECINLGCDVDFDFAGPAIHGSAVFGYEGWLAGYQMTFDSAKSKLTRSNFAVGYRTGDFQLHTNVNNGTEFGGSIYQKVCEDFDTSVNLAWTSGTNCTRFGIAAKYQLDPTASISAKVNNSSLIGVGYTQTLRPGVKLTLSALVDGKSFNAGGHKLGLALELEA", "assay": "SILAC MS mapping of lipid probe targets (probe-versus-No UV, probe-versus-probe) in Neuro2a cells", "assay_type": "cell-based", "settings": "AEA-DA probe vs NoUV"}, "[14]": {"molecular_target": "T14, lipid-binding proteins in Neuro2a cells (Mus musculus, UniProt Q9CPQ3)", "T14 construct": "endogenous in cells; host or cells: Neuro2a", "assay": "SILAC MS mapping of lipid probe targets (probe-versus-No UV, probe-versus-probe) in Neuro2a cells", "assay_type": "cell-based", "settings": "AEA-DA probe vs NoUV"}, "[15]": {"molecular_target": "T15, lipid-binding proteins in Neuro2a cells (Mus musculus, UniProt Q3UV70)", "T15 construct": "endogenous in cells; host or cells: Neuro2a", "T15 sequence (Q3UV70 72-538)": "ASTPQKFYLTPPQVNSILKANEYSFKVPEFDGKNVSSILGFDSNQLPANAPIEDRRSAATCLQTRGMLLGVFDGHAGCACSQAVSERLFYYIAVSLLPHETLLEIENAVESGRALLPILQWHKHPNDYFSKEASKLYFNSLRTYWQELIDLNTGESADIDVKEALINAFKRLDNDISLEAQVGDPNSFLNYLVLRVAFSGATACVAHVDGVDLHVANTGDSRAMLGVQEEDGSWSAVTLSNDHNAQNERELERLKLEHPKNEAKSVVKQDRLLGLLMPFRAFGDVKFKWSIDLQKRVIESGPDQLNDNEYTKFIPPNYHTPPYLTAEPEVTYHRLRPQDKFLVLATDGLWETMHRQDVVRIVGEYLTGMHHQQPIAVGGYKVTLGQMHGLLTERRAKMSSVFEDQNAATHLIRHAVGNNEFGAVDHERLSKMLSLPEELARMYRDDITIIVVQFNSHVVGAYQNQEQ", "assay": "SILAC MS mapping of lipid probe targets (probe-versus-No UV, probe-versus-probe) in Neuro2a cells", "assay_type": "cell-based", "settings": "protein Pdp1, AEA-DA probe, No UV control"}, "[16]": {"molecular_target": "T16, lipid-binding proteins in Neuro2a cells (Mus musculus, UniProt Q78IK4)", "T16 construct": "endogenous in cells; host or cells: Neuro2a", "assay": "SILAC MS mapping of lipid probe targets (probe-versus-No UV, probe-versus-probe) in Neuro2a cells", "assay_type": "cell-based", "settings": "protein Apool, AEA-DA probe, No UV control"}, "[17]": {"system": "lipid-binding proteins in Neuro2a cells", "assay": "SILAC MS mapping of lipid probe targets (probe-versus-No UV, probe-versus-probe) in Neuro2a cells", "assay_type": "cell-based, mouse", "settings": "AEA-DA probe vs NoUV"}, "[18]": {"molecular_target": "T17, lipid-binding proteins in Neuro2a cells (Mus musculus, UniProt P52019)", "T17 construct": "endogenous in cells; host or cells: Neuro2a", "T17 sequence (P52019 whole entry)": "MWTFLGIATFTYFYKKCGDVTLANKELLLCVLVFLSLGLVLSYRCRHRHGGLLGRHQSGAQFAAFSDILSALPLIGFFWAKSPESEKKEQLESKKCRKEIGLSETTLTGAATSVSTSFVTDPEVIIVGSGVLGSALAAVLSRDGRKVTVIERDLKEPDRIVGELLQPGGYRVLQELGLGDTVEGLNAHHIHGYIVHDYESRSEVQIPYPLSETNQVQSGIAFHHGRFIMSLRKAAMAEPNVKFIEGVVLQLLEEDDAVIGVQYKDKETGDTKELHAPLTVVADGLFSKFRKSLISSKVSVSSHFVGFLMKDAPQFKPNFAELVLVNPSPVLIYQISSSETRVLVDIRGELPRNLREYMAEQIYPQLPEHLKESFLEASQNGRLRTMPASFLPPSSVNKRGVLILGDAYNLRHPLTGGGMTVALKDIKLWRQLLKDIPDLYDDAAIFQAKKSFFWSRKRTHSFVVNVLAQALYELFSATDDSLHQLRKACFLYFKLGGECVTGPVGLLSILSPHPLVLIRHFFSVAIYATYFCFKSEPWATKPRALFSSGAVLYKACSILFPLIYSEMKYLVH", "assay": "SILAC MS mapping of lipid probe targets (probe-versus-No UV, probe-versus-probe) in Neuro2a cells", "assay_type": "cell-based", "settings": "AEA-DA probe vs NoUV"}},
  "data": [
    {"smiles": "C#CCCCC1(CC/C=C\\C/C=C\\C/C=C\\CCCC(=O)NCCO)N=N1", "note": "[AEA-DA, (5Z,8Z,11Z)-N-(2-hydroxyethyl)-14-(3-(pent-4-yn-1-yl)-3H-diazirin-3-yl)tetradeca-5,8,11-trienamide]", "values": [
      {"measurement": "Times observed", "setting": "[1]", "value": 3},
      {"measurement": "Times observed", "setting": "[2]", "value": 12},
      {"measurement": "Times observed", "setting": "[3]", "value": 2},
      {"measurement": "SILAC ratio, VAT1 (Q99536)", "setting": "[4]", "value": 4.4},
      {"measurement": "SILAC ratio, AEA-DA probe versus No UV", "setting": "[5]", "value": 20.0},
      {"measurement": "SILAC ratio, DNAJC1 (Q96KC8)", "setting": "[6]", "value": 20.0},
      {"measurement": "SILAC ratio, ABHD6 (Q8R2Y0)", "setting": "[7]", "value": 20.0},
      {"measurement": "SILAC ratio, PGRMC2 (Q80UU9)", "setting": "[8]", "value": 16.3},
      {"measurement": "SILAC ratio, AEA-DA probe versus No UV", "setting": "[9]", "value": 20.0},
      {"measurement": "SILAC ratio, NPTN (Q9Y639)", "setting": "[10]", "value": 17.4},
      {"measurement": "SILAC ratio, HMOX2 (P30519)", "setting": "[11]", "value": 4.0},
      {"measurement": "SILAC ratio, SEC11A (P67812)", "setting": "[12]", "value": 5.4},
      {"measurement": "SILAC ratio, VDAC2 (P45880)", "setting": "[13]", "value": 16.5},
      {"measurement": "SILAC ratio, TOMM22 (Q9CPQ3)", "setting": "[14]", "value": 20.0},
      {"measurement": "SILAC ratio, AEA-DA probe versus No UV", "setting": "[15]", "value": 20.0},
      {"measurement": "SILAC ratio, AEA-DA probe versus No UV", "setting": "[16]", "value": 6.4},
      {"measurement": "SILAC ratio, GM20425 (E9Q035)", "setting": "[17]", "value": 16.5},
      {"measurement": "SILAC ratio, SQLE (Q14534)", "setting": "[18]", "value": 5.0}
    ]}
  ]
}
